Assay results published in patent publication US10933032B2, “Methods for the treatment of cancer using coenzyme Q10 combination therapies” (Berg LLC, priority 2013, dated 2021).
“Also recorded” adds a separate entry of the source.

Columns and labels:
[1] = system: MIAPaCa-2 human pancreatic tumor cells; test: Xenogeneic mouse human pancreatic cancer model, survival; format: in vivo, NOD scid gamma (NSG) mice; settings: for Survival (prolongation of life) compared to untreated control: Example 1, Regimen 1, single agent: IV 4% Coenzyme Q10 50 mg/kg/day, or IV gemcitabine 150 mg/kg/week for 3 weeks with one week rest; for Survival, combination of CoQ10 and gemcitabine vs other groups: Example 1, Regimen 1: IV CoQ10 50 mg/kg/day + IV gemcitabine 150 mg/kg weekly for 3 weeks with one week rest
[2] = system: MIAPaCa-2 human pancreatic tumor cells; test: Xenogeneic mouse human pancreatic cancer model, tumors harvested at mortality (size, weight, vasculature, palpation); format: in vivo, NOD scid gamma (NSG) mice
[3] = system: triple-negative breast cancer (TNBC) xenografts; test: Triple-negative breast cancer (TNBC) xenograft, survival; format: in vivo, Mice; settings: FIG. 21
[4] = Prior experiments, signs of toxicity; format: in vivo; settings: three times per week at up to 50 mg/kg
Description: Sterile CoQ10 formula and the suitable sterile control is administered intravenously. CoQ10 doses are administered based on ongoing results. […] The effect of CoQ10 is compared with other chemotherapy regimens specific for each cancer line. Another arm of the study evaluates synergistic effects between CoQ10 and other chemotherapeutic agents.

[5] = in vivo; settings: rat, rats, given three times per week for 4 weeks
[6] = system: cells; test: Relative timing of CoQ10 and chemotherapeutic agents, cell killing in vitro (Example 7); format: cell-based; settings: Example 7, written in present tense
Description: Using the methods in Example 6, cells are tested to determine if the relative timing of treatment of cells with CoQ10 and chemotherapeutic agents has an effect on cell killing, e.g., by promotion of apoptosis, induction of tumor lysis, inhibition of cell proliferation.
Briefly, cells are cultured as in Example 6. Cells are treated with CoQ10 and chemotherapeutic agents, either alone or in combination, or with appropriate vehicle controls. For the cells treated with both CoQ10 and chemotherapeutic agents, the cells are contacted with the CoQ10 and chemotherapeutic agents in various sequences. Various concentrations of CoQ10 and chemotherapeutic agents are used. Various treatment times are also used.
After treatment with CoQ10 and chemotherapy as indicated, cells are harvested and assayed for viability and apoptosis using the methods provided above. […] The metabolic switch effectuated by CoQ10 in cancer cells is associated with induction of a novel integrated signaling cross-talk involving TP53, Bcl-2/Bax and VEGF that results in the recapitulation of apoptotic pathways.

[7] = system: MIAPaCa-2 pancreatic cancer cells; format: cell-based; settings: CoQ10 (100 μM) pre-treatment (6 hours) and co-treatment regimen, FIGS. 11-14
[8] = system: MIAPaCa-2, SKOV-3, PC-3, HT-29, MCF7, MDA-MB231, SKBR-3, A549, Hep3B cancer cells; test: In vitro CoQ10 monotherapy of various cancer cell types; format: cell-based; settings: 100 μM CoQ10 for 48-72 hours; FIG. 16
Description: Cells were treated with 100 μM CoQ10 for 48-72 hours.

[9] = system: MIAPaCa2 pancreatic cancer cells; test: Proliferation assay (CFSE, flow cytometry); format: cell-based, human; settings: MIAPaca-2; CoQ10 with gemcitabine; FIG. 13
Description: FIG. 13 is a graph showing results from proliferation assay in which MIAPaCa2 pancreatic cancer cells were treated with gemcitabine alone or in combination with CoQ10 prior to assessment of proliferation via flow cytometric analysis using the cell tracer dye CFSE which stains live cells. Values are normalized to the number of cells treated with neither CoQ10 nor the chemotherapeutic agent.
Without being bound by mechanism, it is proposed that CoQ10 effectuates a metabolic switch from glycolysis towards enhanced mitochondrial oxidative phosphorylation resulting in the recapitulation of apoptosis in cancer. The effects of CoQ10 were investigated to determine if pretreatment with CoQ10 results in mitochondrial priming, thereby augmenting the cytotoxic effect of standard of care chemotherapeutic agents. MIAPaCa-2 human pancreatic cancer cells were either (a) pretreated with CoQ10 prior to treatment with gemcitabine or (b) co-treated with CoQ10 and gemcitabine.

[10] = system: MDA-MB213 breast cancer cells; test: Basal oxygen consumption rate (OCR) and extracellular acidification rate (ECAR); format: cell-based; settings: 100 μM CoQ10 for 24 hours, FIG. 17
Description: (§1) Cells were treated with 100 μM CoQ10 for 24 hours.
(§2) Mitochondria represent a significant source of ROS which are known to participate in activation of cell death pathways.

[11] = system: MDA-MB213 breast cancer cells; test: Reactive oxygen species (ROS) production; format: cell-based; settings: 100 μM CoQ10 for 24 hours, FIG. 17
Description: as §1, §2

[12] = system: non-tumorigenic control cells (MCF12A); test: Reactive oxygen species (ROS) production; format: cell-based; settings: 100 μM CoQ10 for 24 hours, FIG. 17
Description: as §1, §2

[13] = system: tumors; settings: Example 8, written in present tense
Description: In an in vivo tumor xenograft model, mice are implanted with tumors. For example, MIAPaCa-2 pancreatic cancer cells suspended in [sequence] are injected into NSG mice. Alternatively, other tumor cell lines, e.g., triple negative breast cancer, hepatic cancer, prostate cancer, melanoma, sarcoma, carcinoma cell lines, are used in the xenograft mouse model.
Various sequential regimens and combinations of CoQ10 and chemotherapeutic agents are tested for the ability to reduce tumor burden and/or reduce tumor metastasis. […] For example, in some animals, 2 or more cycles of CoQ10 are administered in Treatment 1 prior to one or more cycles of the chemotherapeutic agent in Treatment 2. In some animals, one cycle of CoQ10 is administered in Treatment 1 prior to administration of multiple cycles of chemotherapy in Treatment 2.
Tumor volumes are monitored using routine methods, e.g., calipers, imaging analysis. At the end of the study, tumors are excised and analyzed for using routine methods, e.g., for size (e.g., weight and volume), histological characteristics, grade, and vascularization.

[14] = background statement; cited from earlier work

COC1=C(OC)C(=O)C(C/C=C(\C)CC/C=C(\C)CC/C=C(\C)CC/C=C(\C)CC/C=C(\C)CC/C=C(\C)CC/C=C(\C)CC/C=C(\C)CC/C=C(\C)CCC=C(C)C)=C(C)C1=O [CoQ10, Coenzyme Q10]
Survival rate (survival probability) at 300 days ([1]; 50 mg/kg CoQ10, FIG. 30): lowest survival rate | Survival rate (survival probability) at 300 days ([1]; 100 mg/kg CoQ10, FIG. 30): between the other two treatment groups | Survival rate (survival probability) at 300 days ([1]; 200 mg/kg CoQ10, FIG. 30): highest survival rate | Survival, pretreatment with CoQ10 for sixty days followed by gemcitabine+CoQ10 ([1]; CoQ10 200 mg/kg, vs gemcitabine+CoQ10 from the start, gemcitabine or CoQ10 alone, FIG. 31): improved survival in comparison to treatment with gemcitabine+CoQ10 from the start of the treatment regimen; also recorded: improved survival outcomes | Survival rate (survival probability) at 200 days ([1]; CoQ10 60 days prior to start of gemcitabine and continuing with CoQ10, FIG. 31): highest survival rate | Responses associated with favorable therapeutic endpoints, most notably an increase in survival ([1]; CoQ10 alone or CoQ10 in combination with doxorubicin, vs gemcitabine or doxorubicin): more effective than gemcitabine or doxorubicin | Survival rate (survival probability) at 200 days ([1]; CoQ10 from the start (alone), FIG. 31): next highest survival rate | Survival (prolongation of life) compared to untreated control ([1]; FIG. 1): prolongation of life as compared to untreated control | Survival (prolongation of life) compared to untreated control ([1]; FIG. 1, listed as Coenzyme Q10): increases survival time of the mice | Survival, combination of CoQ10 and gemcitabine vs other groups ([1]; FIG. 1): prolonged survival and long-term remission that was statistically significant compared to other groups | Survival, combination of CoQ10 and gemcitabine vs other groups ([1]; FIG. 1, listed as Coenzyme Q10): more effective at increasing survival time in mice bearing pancreatic tumors than treatment with either agent alone | Impact on survival, CoQ10 alone vs gemcitabine alone ([1]; Example 1, Regimen 1: IV CoQ10 50 mg/kg/day vs gemcitabine 150 mg/kg/week, FIG. 1): significantly greater impact on survival than gemcitabine alone | Survival, CoQ10 alone ([1]; Example 2, Regimen 2: 4% CoQ10 intravenous formulation 50 mg/kg intraperitoneally twice daily, 3 weeks with one week rest, vs untreated or gemcitabine alone, FIG. 4): increase in survival | Survival, CoQ10 in combination with gemcitabine ([1]; Example 2, Regimen 2: CoQ10 50 mg/kg IP twice daily + gemcitabine 150 mg/kg once per week, vs untreated or gemcitabine alone, FIG. 4): increase in survival | Survival (viability, mortality), CoQ10 in combination with doxorubicin vs doxorubicin alone ([1]; Example 4, once daily dosing with intravenous CoQ10, FIG. 7): decreased mortality rates | Survival, Coenzyme Q10 alone vs control animals ([1]; Example 5, Regimen 3: IP 4% CoQ10 intravenous formulation 50 or 75 mg/kg/dose, 3 times daily, FIG. 8): significantly increased survival as compared to control animals | Survival, combination of Coenzyme Q10 and gemcitabine vs same dose of Coenzyme Q10 alone ([1]; Example 5, Regimen 3: IP CoQ10 50 or 75 mg/kg/dose 3 times daily + IV gemcitabine 150 mg/kg weekly for 3 weeks with one week rest, FIG. 8): increased survival as compared to mice treated with the same dose of Coenzyme Q10 alone | Survival, pretreatment with CoQ10 followed by gemcitabine vs co-treatment regimen ([1]; Example 11, IP CoQ10 75 mg/kg/dose 3 times daily, gemcitabine 150 mg/kg weekly initiated 1-3 weeks later, early time points, FIG. 15): improved survival | Survival, CoQ10 + gemcitabine vs untreated control ([1]; Example 11, latest time point, FIG. 15): increases the survival in a statistically significant manner as compared to untreated control | Survival, dose dependence ([1]; Example 17, Regimen 3: 50 mg/kg or 75 mg/kg, FIG. 29): dose dependent increase in survival | Effect on survival when combined with gemcitabine ([1]; Example 17, Regimen 3, FIG. 29): additive effect to gemcitabine | Survival rates, continuous infusion of CoQ10 vs three doses (50 mg/kg or 75 mg/kg) ([1]; Example 17, best outcomes at 200 mg/kg, FIG. 30): significantly improved survival rates compared to three doses | Survival, continuous infusion of CoQ10 at 200 mg/kg vs 50 mg/kg ([1]; FIG. 30): significantly improved survival in comparison to 50 mg/kg CoQ10 | Survival rate (survival probability) at 200 days ([1]; gemcitabine and CoQ10 from the start, FIG. 31): next highest survival rate | Growth of pancreatic tumors (tumor size at time of death) vs control ([2]; Example 1, single agents: Group 2 Coenzyme Q10 IV 50 mg/kg/day, Group 3 gemcitabine 150 mg/kg/week, FIG. 2): inhibited the growth of pancreatic tumors; also recorded: inhibits pancreatic tumor growth | Tumor vasculature (histological analysis) ([2]; Example 1, intravenous Coenzyme Q10 vs untreated control mice, not quantified): decreased tumor vasculature; also recorded: decrease in the amount of vasculature in pancreatic tumors | Tumor weight / tumor growth, combination of Coenzyme Q10 and gemcitabine (Group 4) ([2]; Example 1, vs Coenzyme Q10 alone or gemcitabine alone, FIG. 3): significantly smaller than tumors from mice treated with Coenzyme Q10 alone; also recorded: more effective at inhibiting the growth of pancreatic tumors in mice than treatment with either agent alone | Tumor weight at mortality, Coenzyme Q10 alone (Group 2) ([2]; Example 1, vs control group and gemcitabine treated group, FIG. 3): significantly smaller than tumors from mice in the control group | Survival, CoQ10 in combination with the TAC regimen ([3]; 75 mg/kg CoQ10, TAC: 5 mg/kg docetaxel, 1 mg/mg doxorubicin, 35 mg/kg cyclophosphamide every three weeks for six cycles): significantly improved survival | Survival, CoQ10 alone ([3]; 75 mg/kg body weight CoQ10 (BPM 31510)): significantly improved survival | Signs of toxicity [4]: no signs of toxicity | MTD at 4 weeks [5]: 250 mg/kg | Cell killing, pretreatment with CoQ10, discontinuation, then chemotherapy [6]: also effective in cell killing | Cell killing, pretreatment with CoQ10 followed by concurrent CoQ10 and chemotherapy [6]: effective in cell killing | Cell killing, pretreatment with CoQ10 prior to chemotherapy [6]: more effective in cell killing than co-treatment with CoQ10 and chemotherapy or treatment with CoQ10 after chemotherapy | Cytotoxic potential of gemcitabine [7]: augmented the cytotoxic potential of gemcitabine | Cell death in cancer cells [8]: increased cell death | Proliferation vs gemcitabine alone [9]: decreased proliferation | Ratio of OCR to ECAR [10]: higher ratio of OCR to ECAR | ROS production [11]: increased ROS production | ROS production [12]: increased ROS production | Efficacy (tumor burden), one or more cycles of CoQ10 prior to a chemotherapeutic agent [13]: more effective than co-administration of CoQ10 with a chemotherapeutic agent or a chemotherapeutic agent alone | Lipophilicity [14]: very lipophilic | Solubility in water [14]: insoluble in water
